Measured values taken from patent US12252472B1, “Barbituric acid derivatives, their preparation and use thereof as leukocyte transmigration inhibitors and for treating inflammatory diseases, autoimmune diseases and cancer” (BAR-ILAN UNIVERSITY, priority 2017, dated 2025).

Columns and labels:
[1] = system: mouse monocytes / macrophages from the abdominal cavity; assay: Ten-color flow cytometry (CD115, F4/80) of peritoneal cells from the peritonitis model; type: in vivo
Experimental: After inducing the inflammation (peritonitis), compound of Formula 2 was injected at a concentration of 12.5 mg/kg (DMSO, 01% in PBS, IP), twice (one day after the other). The next day, mice were sacrificed and the peritoneal liquid was collected from the control and treated mice (n=3 for each group). Two assays were conducted for the estimation of the possible anti-inflammatory effect of compound of Formula 2: leukocyte counting (the total amount and the calculation of the percentage of different leukocyte fractions) and a flow cytometry.
Flow cytometry based on a fluorescent protein marker (CD115) was selected for the analysis. It is generated by monocytes and localized to their plasma membrane as described by Yang, J. et al. (Monocyte and macrophage differentiation: circulation inflammatory monocyte as biomarker for inflammatory diseases. Biomark Res, 2014. 2(1): p. 1). This protein is able to specifically recognize and bind a F4/80 antibody that activates the immune system macrophages (Lin, H. H., et al., The macrophage F4/80 receptor is required for the induction of antigen-specific efferent regulatory T cells in peripheral tolerance. Journal of Experimental Medicine, 2005. 201(10): p. 1615-1625).
Cell viability before the FACS experiment was assessed by incubation in the amine-reactive dye Aqua (Invitrogen) (1:500) dilution in Ca^2+ and Mg^2+-free PBS) for 30 minutes in the dark at room temperature (RT), followed by a single wash in PBS. For all experiments, cells were incubated in 0.5 μg Fc Block (BD Biosciences) for 10 minutes at room temperature (RT). Surface staining was performed in the dark for 30 minutes at 4° C. in staining buffer. A surface marker (CD115, APC clone AFS98, in dilution 1:100, from eBioscience) was used. […] Fluorescence minus one (FMO) controls were used for gating analyses to distinguish positively from negatively staining cell populations. […] Compensation matrices were calculated and applied using FlowJo software (Tree Star). […]

[2] = system: C57BL/6J mice; assay: Acute dextran sodium sulfate (DSS) induced colitis model; type: in vivo, mouse
Experimental: The colitis was inducted by adding 1.5% DSS to the drinking water of female C57BL/6J (7-8 weeks old) mice for 5 consecutive days (days 0-4) for all animals in the experimental groups. On day 5, DSS containing water was changed for regular drinking water and treatment was initiated. The working suspension of the compound of Formula 2 was administrated at 15 mg/kg by IV, IP or SC injections at q3w regimen (administered 3 times per week) and at 30 mg/kg by PO at qd regimen (once daily). Treatment continued for 10 days and thereafter mice were euthanized.
Determination of individual body weight of animals was made prior to each dosing and the administered volume was adjusted accordingly. Additional body weights throughout the entire experimental period were taken on a daily bases. The severity of colitis Disease Activity Index (DAI) score was monitored daily according to the criteria shown in Table 3 and calculated as a sum of the weight loss score, the diarrheal score and the hematochezia score. Disease activity index (DAI) based on the methods reported by Friedman et al. (PNAS, 2009) was used.
Mice from all groups were euthanized with isoflurane 24 hours post last dose administration. Colon was collected from each mouse, filled with 4% buffered formalin and colon length was measured. Large intestines were fixed, embedded in paraffin, sections and H&E stained using modified Swiss roll technique. Histological Score evaluation was performed based on: inflammatory cells infiltration and tissue damage, in four compartments of the large intestine graded from 0 to 3.
For tissue damage, discrete lymphoepithelial lesions were scored as 1, mucosal erosions as 2, and extensive mucosal damage and/or extension through deeper structures of the bowel wall as 3. The length of ulceration was measured in mm. The two equally weighted subscores (cell infiltration and tissue damage) at each compartment of the intestine were added as a colitis severity score. Ordinary one-way ANOVA statistical analysis was performed.

[3] = abdominal cavity, treated vs non-treated mice, FACS

Question: For `COC(=O)c1ccc(COc2c(C=C3C(=O)NC(=O)NC3=O)cccc2C(C)(C)C)cc1` [Formula 2, methyl 4-((2-(tert-butyl)-6-((2,4,6-trioxotetrahydropyrimidin-5(2H)-ylidene)methyl)phenoxy)methyl) benzoate], which “monocyte phenotype, CD115 expression (shift in pattern of gates 1-4)” value ([1]; C57BL/6 mouse monocytes) is on record?
Answer: Its value is “reduced differentiation”.

Question: What about the “amount of activated (high macrophages)” value [1, 3] of the same compound?
Answer: The value was “considerably decreased”.

Question: What about the “level of non-activated (low macrophage)” value [1, 3] of the same compound?
Answer: The value was “elevated”.

Question: And the “Disease Activity Index (DAI) score, PO treated mice” value ([2]; 30 mg/kg PO qd)?
Answer: The value was “maximal effect”.

Question: What about the “colon length, amount by which control groups were shorter than treated groups” value ([2]; all treated groups vs control groups) of the same compound?
Answer: Its value is “approximately 2 cm”.

Question: What about the “Disease Activity Index (DAI) score” value ([2]; all treated groups: 15 mg/kg IV, IP or SC q3w, 30 mg/kg PO qd, 10 days) of the same compound?
Answer: Its value is “significantly decreased”.

Question: What about the Weight loss score ([2]; treated groups vs control groups) of the same compound?
Answer: Its Weight loss score is “significantly lower”.

Question: What about the “stool formation that readily becomes paste on the anus” value ([2]; treated groups vs control mice) of the same compound?
Answer: Its value is “not detected”.

Question: What about the “Histological score of large intestine” value ([2]; treated vs control mice) of the same compound?
Answer: Its value is “significantly lower”.
